From the supplement of paper PMC10307832

What was measured:
Experiment in all cases: relative viability (nuclei count vs DMSO), 5 days (fraction); higher = more cells survive
CAL-12T = system: CAL-12T
In short: (§1)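 Lung cancer cell lines in 1536-well plates were dosed by pin tool the day after seeding, either with one drug alone or with a fixed anchor-drug dose plus five library-drug doses (not always all listed) in √10 steps. After 5 days, cells were fixed and their nuclei stained in one step (final 0.05% Triton X-100, 1% formaldehyde, 1 ug/ml Hoechst), then counted on 4× images. Relative viability is the nuclei count in treated wells divided by that in vehicle wells. Values are medians of duplicate plates.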

NCI-H1734 = system: NCI-H1734
In short: as §1

NCI-H596 = system: NCI-H596
In short: as §1

PC-3 [JPC-3] = system: PC-3 [JPC-3]
In short: as §1

SK-LU-1 = system: SK-LU-1
In short: as §1

UMC-11 = system: UMC-11
In short: as §1

NCI-H3122 = system: NCI-H3122
In short: as §1

NCI-H2347 = system: NCI-H2347
In short: as §1

NCI-H441 = system: NCI-H441
In short: as §1

ABC-1 = system: ABC-1
In short: as §1

NCI-H1755 = system: NCI-H1755
In short: as §1

How did the relative viability (CAL-12T; first compound 0.002 µM) turn out when CCNC(=O)c1noc(-c2cc(C(C)C)c(O)cc2O)c1-c1ccc(CN2CCOCC2)cc1 [Luminespib] + O=C(CCCCCCC(=O)Nc1ccccc1)NO [Vorinostat] (partner 1 µM) was run?
The relative viability was 0.725.

What about the relative viability (CAL-12T; first compound 0.006325 µM) of the same molecule?
Its relative viability is 0.802.

And the relative viability (CAL-12T; first compound 0.02 µM)?
The relative viability was 0.29.

And the relative viability (CAL-12T; first compound 0.06325 µM)?
The relative viability was 0.101.

And the relative viability (CAL-12T; first compound 0.2 µM)?
The relative viability was 0.118.

What about the relative viability (NCI-H1734; first compound 0.002 µM) of the same molecule?
Its relative viability is 0.719.

And the relative viability (NCI-H1734; first compound 0.006325 µM)?
Its relative viability is 0.719.

And the relative viability (NCI-H1734; first compound 0.02 µM)?
Its relative viability is 0.436.

And the relative viability (NCI-H1734; first compound 0.06325 µM)?
The relative viability was 0.132.

And the relative viability (NCI-H1734; first compound 0.2 µM)?
Its relative viability is 0.123.

What about the relative viability (NCI-H596; first compound 0.002 µM) of the same molecule?
The relative viability was 0.61.

What about the relative viability (NCI-H596; first compound 0.006325 µM) of the same molecule?
Its relative viability is 0.553.

What about the relative viability (NCI-H596; first compound 0.02 µM) of the same molecule?
Its relative viability is 0.434.

And the relative viability (NCI-H596; first compound 0.06325 µM)?
The relative viability was 0.634.

And the relative viability (NCI-H596; first compound 0.2 µM)?
Its relative viability is 0.574.

And the relative viability (PC-3 [JPC-3]; first compound 0.002 µM)?
The relative viability was 0.737.

And the relative viability (PC-3 [JPC-3]; first compound 0.006325 µM)?
The relative viability was 0.361.

What about the relative viability (PC-3 [JPC-3]; first compound 0.02 µM) of the same molecule?
Its relative viability is 0.491.

What about the relative viability (PC-3 [JPC-3]; first compound 0.06325 µM) of the same molecule?
The relative viability was 0.381.

And the relative viability (PC-3 [JPC-3]; first compound 0.2 µM)?
Its relative viability is 0.287.

And the relative viability (SK-LU-1; first compound 0.002 µM)?
Its relative viability is 0.927.

And the relative viability (SK-LU-1; first compound 0.006325 µM)?
The relative viability was 0.596.

And the relative viability (SK-LU-1; first compound 0.02 µM)?
Its relative viability is 0.615.

And the relative viability (SK-LU-1; first compound 0.06325 µM)?
The relative viability was 0.262.

What about the relative viability (SK-LU-1; first compound 0.2 µM) of the same molecule?
Its relative viability is 0.211.

What about the relative viability (UMC-11; first compound 0.002 µM) of the same molecule?
Its relative viability is 0.393.

What about the relative viability (UMC-11; first compound 0.006325 µM) of the same molecule?
The relative viability was 0.402.

What about the relative viability (UMC-11; first compound 0.02 µM) of the same molecule?
The relative viability was 0.345.

And the relative viability (UMC-11; first compound 0.06325 µM)?
The relative viability was 0.302.

What about the relative viability (UMC-11; first compound 0.2 µM) of the same molecule?
Its relative viability is 0.152.

What about the relative viability (NCI-H3122; first compound 0.002 µM) of the same molecule?
Its relative viability is 0.991.

And the relative viability (NCI-H3122; first compound 0.006325 µM)?
The relative viability was 0.973.

What about the relative viability (NCI-H3122; first compound 0.02 µM) of the same molecule?
Its relative viability is 0.456.

And the relative viability (NCI-H3122; first compound 0.06325 µM)?
The relative viability was 0.787.

And the relative viability (NCI-H3122; first compound 0.2 µM)?
Its relative viability is 0.067.

And the relative viability (NCI-H2347; first compound 0.002 µM)?
The relative viability was 0.54.

What about the relative viability (NCI-H2347; first compound 0.006325 µM) of the same molecule?
The relative viability was 0.413.

What about the relative viability (NCI-H2347; first compound 0.02 µM) of the same molecule?
Its relative viability is 0.589.

And the relative viability (NCI-H2347; first compound 0.06325 µM)?
Its relative viability is 0.38.

What about the relative viability (NCI-H2347; first compound 0.2 µM) of the same molecule?
The relative viability was 0.263.

And the relative viability (NCI-H441; first compound 0.002 µM)?
The relative viability was 0.784.

What about the relative viability (NCI-H441; first compound 0.006325 µM) of the same molecule?
Its relative viability is 0.823.

And the relative viability (NCI-H441; first compound 0.02 µM)?
Its relative viability is 0.785.

What about the relative viability (NCI-H441; first compound 0.06325 µM) of the same molecule?
Its relative viability is 0.233.

What about the relative viability (NCI-H441; first compound 0.2 µM) of the same molecule?
The relative viability was 0.11.

And the relative viability (ABC-1; first compound 0.002 µM)?
Its relative viability is 1.34.

What about the relative viability (ABC-1; first compound 0.006325 µM) of the same molecule?
The relative viability was 0.291.

What about the relative viability (ABC-1; first compound 0.02 µM) of the same molecule?
Its relative viability is 1.06.

What about the relative viability (ABC-1; first compound 0.06325 µM) of the same molecule?
Its relative viability is 0.269.

What about the relative viability (ABC-1; first compound 0.2 µM) of the same molecule?
The relative viability was 0.325.

And the relative viability (NCI-H1755; first compound 0.002 µM)?
The relative viability was 0.751.

And the relative viability (NCI-H1755; first compound 0.006325 µM)?
Its relative viability is 0.774.

And the relative viability (NCI-H1755; first compound 0.02 µM)?
The relative viability was 0.835.

What about the relative viability (NCI-H1755; first compound 0.06325 µM) of the same molecule?
Its relative viability is 0.57.

And the relative viability (NCI-H1755; first compound 0.2 µM)?
The relative viability was 0.319.
